Calls of active or inactive are those of the source. The rule behind the calls is not given here.

The values below come from ChEMBL document CHEMBL1152492, “DNA-targeting pyrroloquinoline-linked butenone and chalcones: synthesis and biological evaluation” (Eur J Med Chem, 2009).

One assay concerns HL-60. The experiment in a line: Antiproliferative activity against human HL60 cells after 72 hrs by trypan blue assay. In kind it is functional, cell-based. As to conditions: HL-60, 72 h.
Another assay has as its system HeLa. Kind of assay: Antiproliferative activity against human HeLa cells after 72 hrs by trypan blue assay. In kind it is functional, cell-based.
Assay [1] in a line: Antiproliferative activity against human JR8 cells after 72 hrs by trypan blue assay. The settings on record: JR8, 72 h. In kind it is functional, cell-based.
In a further assay the test system is Nucleic Acid. The experiment in a line: Binding affinity to salmon testes DNA assessed as occurrence of intercalative molecular complex by linear flow dichroism. As to conditions: Salmonidae. In kind it is nucleic-acid assay.
Assay [2] addresses DNA topoisomerase 2-alpha (Homo sapiens) (UniProt P11388). The experiment in a line: Inhibition of human recombinant topoisomerase 2 assessed as induction of linear pBR322 DNA formation at 50 uM by agarose gel electrophoresis.
The target is the same in assay [3]. Kind of assay: Inhibition of human recombinant topoisomerase 2 catalytic activity at 20 uM by agarose gel electrophoresis.
For assay [4] the target is unchanged. Kind of assay: Inhibition of human recombinant topoisomerase 2-mediated relaxation of supercoiled pBR322 DNA after 60 mins by agarose gel electrophoresis.
Assay [5] has the same target. Kind of assay: Inhibition of human recombinant topoisomerase 2 assessed as induction of linear pBR322 DNA formation upto 20 uM by agarose gel electrophoresis.
The target is the same in assay [6]. Kind of assay: Inhibition of human recombinant topoisomerase 2-mediated relaxation of supercoiled pBR322 DNA at 10 uM after 60 mins by agarose gel electrophoresis.
Assay [7] shares this target. Kind of assay: Inhibition of human recombinant topoisomerase 2 assessed as induction of linear pBR322 DNA formation at 15 uM by agarose gel electrophoresis.

DNA topoisomerase 2-alpha (Homo sapiens), sequence (P11388 whole entry): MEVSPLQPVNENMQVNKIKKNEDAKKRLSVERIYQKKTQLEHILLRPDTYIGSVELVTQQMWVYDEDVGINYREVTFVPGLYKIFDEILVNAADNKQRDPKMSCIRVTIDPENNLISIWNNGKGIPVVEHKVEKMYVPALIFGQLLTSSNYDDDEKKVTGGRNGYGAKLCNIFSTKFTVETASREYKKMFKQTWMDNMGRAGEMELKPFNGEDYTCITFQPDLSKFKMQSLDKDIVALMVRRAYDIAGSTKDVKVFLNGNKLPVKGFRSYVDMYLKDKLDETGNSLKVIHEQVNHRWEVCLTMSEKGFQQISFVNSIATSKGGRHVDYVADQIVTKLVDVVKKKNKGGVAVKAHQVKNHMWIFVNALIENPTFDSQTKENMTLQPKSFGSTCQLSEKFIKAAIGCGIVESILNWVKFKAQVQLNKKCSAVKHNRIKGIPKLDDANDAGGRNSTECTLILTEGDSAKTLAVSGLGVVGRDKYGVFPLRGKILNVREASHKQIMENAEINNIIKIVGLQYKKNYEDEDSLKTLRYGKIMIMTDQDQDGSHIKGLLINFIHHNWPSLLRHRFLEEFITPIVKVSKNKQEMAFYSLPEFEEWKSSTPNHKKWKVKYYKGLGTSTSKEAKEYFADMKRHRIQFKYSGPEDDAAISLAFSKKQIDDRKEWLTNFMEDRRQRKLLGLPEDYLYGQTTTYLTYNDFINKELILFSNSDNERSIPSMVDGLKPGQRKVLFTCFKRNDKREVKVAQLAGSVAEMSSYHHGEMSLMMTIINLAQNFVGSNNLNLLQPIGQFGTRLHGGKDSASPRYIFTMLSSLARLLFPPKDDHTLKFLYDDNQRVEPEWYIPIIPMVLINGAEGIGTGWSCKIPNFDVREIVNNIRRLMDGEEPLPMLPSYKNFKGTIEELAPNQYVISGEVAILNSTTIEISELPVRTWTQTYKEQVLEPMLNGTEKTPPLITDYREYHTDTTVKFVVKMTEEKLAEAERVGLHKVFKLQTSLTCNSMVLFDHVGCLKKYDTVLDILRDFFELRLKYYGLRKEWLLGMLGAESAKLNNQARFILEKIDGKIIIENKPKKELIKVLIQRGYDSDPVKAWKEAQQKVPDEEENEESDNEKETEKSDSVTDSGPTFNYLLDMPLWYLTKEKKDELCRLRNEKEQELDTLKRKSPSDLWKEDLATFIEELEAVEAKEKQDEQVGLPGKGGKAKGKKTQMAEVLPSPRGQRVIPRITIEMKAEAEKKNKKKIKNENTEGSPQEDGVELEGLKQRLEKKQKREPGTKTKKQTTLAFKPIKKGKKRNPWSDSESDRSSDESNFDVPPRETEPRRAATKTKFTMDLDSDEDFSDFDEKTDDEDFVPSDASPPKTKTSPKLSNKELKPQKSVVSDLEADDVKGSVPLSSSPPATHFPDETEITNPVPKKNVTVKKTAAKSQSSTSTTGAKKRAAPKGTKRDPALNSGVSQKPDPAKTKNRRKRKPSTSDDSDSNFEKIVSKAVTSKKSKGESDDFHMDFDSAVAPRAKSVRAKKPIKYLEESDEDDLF

Consider `O=C(/C=C/c1cccs1)c1ccc(Nc2ccnc3ccc4[nH]ccc4c23)cc1`, for which the values for the IC50 (in the assay on HL-60; with HeLa; in assay [1]) were 3.2 µM, 5.3 µM and 2.1 µM, respectively.
For `CC(=O)/C=C/c1ccc(Nc2ccnc3ccc4[nH]ccc4c23)cc1`, the half-inhibitory concentration (IC50) with HL-60 stood at 2.3 µM; with HeLa, 7 µM; in assay [1], 1.6 µM. Moreover, the result in the assay on Nucleic Acid was Active. For the same compound, the outcome in assay [2], in assay [3] and in assay [5] was inactive. Besides, the Activity entry in [4] was “Dose-dependent effect”.
Turning to `O=C(/C=C/c1ccc([N+](=O)[O-])cc1)c1ccc(Nc2ccnc3ccc4[nH]ccc4c23)cc1`, the figures for the IC50 (in the assay on HL-60; in the assay on HeLa; in assay [1]) were 4.4 µM, 10.4 µM and 1.2 µM, respectively. Besides, the result in [6] and in [3] was Active. The outcome in assay [2] and in assay [5] was inactive. In addition, in assay [4], the Activity result was “Dose-dependent effect”.
Regarding `O=C(/C=C/c1ccc[nH]1)c1ccccc1`, the half-maximal inhibitory concentration (IC50) (in the assay on HL-60; in the assay with HeLa; in [1]) was greater than 20 µM throughout. In the assay with Nucleic Acid, the outcome was inactive.
In the case of `COc1cc(NS(C)(=O)=O)ccc1Nc1c2ccccc2nc2ccccc12`, the outcome (in assay [7]; in the assay with Nucleic Acid) was Active.
Turning to `O=C(/C=C/c1ccc[nH]1)c1ccc(Nc2ccnc3ccc4[nH]ccc4c23)cc1`, the IC50 in the assay on HL-60 worked out at 5.6 µM; in the assay with HeLa it was 18.1 µM; in [1], 3.3 µM.
On to `O=C(/C=C/c1ccc([N+](=O)[O-])cc1)c1ccccc1`, for which the results for the IC50 (with HL-60; with HeLa; in assay [1]) were 6 µM, greater than 20 µM and 7.8 µM, respectively. The outcome (in the assay on Nucleic Acid; in assay [3]) was inactive.
For the compound `Cc1c2ccncc2c(C)c2c1[nH]c1ccccc12` [ELLIPTECINE], the result in the assay on Nucleic Acid was Active. This compound also had an IC50 in assay [1] of 1.1 µM.
On to `CC(=O)/C=C/c1ccccc1` [BUTENONE], for which the result in the assay on Nucleic Acid was inactive.

Usually IC50 stands for the concentration that gives 50% inhibition. Low values mean inhibition by little substance, high ones a need for much substance.
